{
  "source": "patent US9078446B2",
  "about": "“Use of N-(tetrazol-4-yl)- or N-(triazol-3-yl)arylcarboxamides or their salts for controlling unwanted plants in areas of transgenic crop plants being tolerant to HPPD inhibitor herbicides” (BAYER INTELLECTUAL PROPERTY GMBH, priority 2011, dated 2015)",
  "type_in_all_cases": "in vivo",
  "key": {"[1]": {"system": "non-transformed tobacco plants (Wt)", "test": "Symptoms due to herbicide application on tobacco plants (damage classes 0-3)", "settings": "25 g Al/ha, one week after application", "source_text": "(§1) Seeds harvested from TO transformants will be put on standard soil for germination. Three weeks later plantlets (T1) will be transferred to single pots and grown under standard cultivation conditions (PCT/EP2010/070575, published as WO 2011/076889). Two weeks later, plants were sprayed with several N-(tetrazol-4-yl)- or N-(triazol-3-yl)arylcarboxamides as defined above.\n(§2) Tables F1 to F5: Evaluation of the Symptoms Observed Due to the Application of the Herbicides on Transgenic Tobacco Plants, Expressing the Mutant Pseudomonas fluorescens HPPD G336W, the Avena HPPD (AvHPPD), the HPPD from Kordia algicida FMP27 or the HPPD from Blepharisma japonicum (FMP37), Compared to Non-Tranformed Tobacco Plants (“Wt”).\n(§3) The herbicides (with “g Al/ha” meaning “g active ingredient/ha”) were applied on 8 to 10 plants originated from 1 to 3 independent transgenic events per transgene.\n(§4) The symptoms were evaluated and classified as following: • 3=Very strong damage • 2=Strong damage • 1=Light and transient damage • 0=No damage"}, "[2]": {"system": "soybean plants expressing Pseudomonas fluorescens G336W mutant, FMP 27 and FMP 37", "test": "Tolerance to HPPD inhibitors of soybean plants expressing tolerant HPPD enzymes", "settings": "T1 soybean plants; one week after application", "source_text": "Genes coding for the selected HPPD were obtained from a member of the group of organisms consisting of Blepharisma japonicum and Kordia algicida and cloned into an appropriate binary vector allowing the integration of DNA into the soybean genome, under the control of the CaMV35S promoter. For the respective cloning procedures, see WO2011076882 (PCT/EP2010/070567), Example 9; for Blepharisma japonicum (FMP37) and WO2011076889 (PCT/EP2010/070575), Example 9 for Kordia algicida (FMP27).\nBetween the sequence corresponding to the promoter and the sequence coding for the HPPD a DNA sequence coding for a transit peptide to the chloroplast was inserted, in order to add at the N-terminal extremity of the protein a target signal to allow the localization of the HPPD protein into the plant chloroplast. By using the vectors “pFCO112” (Blepharisma japonicum, WO2011076882), pFCO116 (Korida algicida, WO2011076889), and pFCO117” (see Example B2, above), soybean transformation was achieved as described in Example 10 of WO2011076882 (PCT/EP2010/070567) for Blepharisma japonicum (FMP37) and WO2011076889 (PCT/EP2010/070575) for Kordia algicida (FMP27). Seeds from TO events showing tolerance to tembotrione were harvested.\nT1 Soybean seeds were transferred to single pots and grown under standard cultivation conditions, see WO2011076882.\nTwo weeks later, plants will be sprayed with several N-(tetrazol-4-yl)- or N-(triazol-3-yl)arylcarboxamides as defined above."}, "[3]": {"system": "transgenic tobacco plants expressing mutant Pseudomonas fluorescens HPPD G336W (PfHPPD-G336W)", "test": "Symptoms due to herbicide application on transgenic tobacco plants (damage classes 0-3)", "settings": "PfHPPD-G336W line 646; 25 g Al/ha; one week after application", "source_text": "(§5) Genes coding for the selected HPPD were obtained from a member of the group of organisms consisting of Avena sativa, Pseudomonas fluorescens mutant G336W, Blepharisma japonicum and Kordia algicida and cloned into the binary vector pBin19 allowing the integration of DNA into the tobacco genome, under the control of the CaMV35S promoter. For the cloning procedures, see A2 above for Avena sativa, see B2 above for Pseudomonas fluorescens, mutant G336W, see PCT/EP2010/070567 (published as WO 2011/076882, Example 5; for Blepharisma japonicum (FMP37) and see PCT/EP2010/070575, Example 5 for Kordia algicida (FMP27). Between the sequence corresponding to the promoter and the sequence coding for the HPPD a DNA sequence coding for a transit peptide to the chloroplast was inserted, in order to add at the N-terminal extremity of the protein a target signal to allow the localization of the HPPD protein into the plant chloroplast.\nas §1, §2, §3, §4"}, "[4]": {"system": "transgenic tobacco plants expressing Avena HPPD (AvHPPD)", "test": "Symptoms due to herbicide application on transgenic tobacco plants (damage classes 0-3)", "settings": "25 g Al/ha, one week after application", "source_text": "as §5, §1, §2, §3, §4"}, "[5]": {"system": "transgenic tobacco plants expressing HPPD from Kordia algicida FMP27", "test": "Symptoms due to herbicide application on transgenic tobacco plants (damage classes 0-3)", "settings": "25 g Al/ha, one week after application", "source_text": "as §5, §1, §2, §3, §4"}, "[6]": {"system": "transgenic tobacco plants expressing HPPD from Blepharisma japonicum (FMP37)", "test": "Symptoms due to herbicide application on transgenic tobacco plants (damage classes 0-3)", "settings": "25 g Al/ha, one week after application", "source_text": "as §5, §1, §2, §3, §4"}, "[7]": {"system": "cotton plants expressing FMP 27 and FMP 37", "test": "Tolerance to HPPD inhibitors of cotton plants expressing tolerant HPPD enzymes", "settings": "T1 cotton plants; one week after application", "source_text": "Genes coding for the selected HPPD were obtained from a member of the group of organisms consisting of Blepharisma japonicum and Kordia algicida and cloned into an appropriate binary vector allowing the integration of DNA into the cotton genome, under the control of the CaMV35S promoter. For the respective cloning procedures, see WO2011076882 (PCT/EP2010/070567), Example 11; for Blepharisma japonicum (FMP37) and WO2011076889 (PCT/EP2010/070575), Example 11 for Kordia algicida (FMP27).\nBetween the sequence corresponding to the promoter and the sequence coding for the HPPD a DNA sequence coding for a transit peptide to the chloroplast was inserted, in order to add at the N-terminal extremity of the protein a target signal to allow the localization of the HPPD protein into the plant chloroplast. Cotton transformation was achieved as described in Example 12 of WO2011076882 (PCT/EP2010/070567) for Blepharisma japonicum (FMP37) and WO2011076889 (PCT/EP2010/070575) for Kordia algicida (FMP27). Seeds from T0 events showing tolerance to tembotrione were harvested.\nT1 Cotton seeds were transferred to single pots and grown under standard cultivation conditions, see WO2011076882 (PCT/EP2010/070567) for Blepharisma japonicum (FMP37) and WO2011076889 (PCT/EP2010/070575) for Kordia algicida (FMP27).\nAt least 4 weeks later, plants will be sprayed with several N-(tetrazol-4-yl)- or N-(triazol-3-yl)arylcarboxamides as defined above."}, "[8]": {"system": "transgenic tobacco plants expressing tolerant HPPD enzymes", "test": "Tolerance of tobacco plants expressing tolerant HPPD enzymes (all transgenes)", "source_text": "as §5, §1, §2, §3, §4"}},
  "data": [
    {"smiles": "CCn1nnnc1NC(=O)c1ccc(C(F)(F)F)c(S(C)(=O)=O)c1C", "note": "[Compound 5-148]", "values": [
      {"measurement": "number of plants with Damage 0 (No damage)", "setting": "[1]", "result": 0},
      {"measurement": "number of plants with Damage 1 (Light and transient damage)", "setting": "[1]", "result": 0},
      {"measurement": "number of plants with Damage 2 (Strong damage)", "setting": "[1]", "result": 0},
      {"measurement": "number of plants with Damage 3 (Very strong damage)", "setting": "[1]", "result": 10},
      {"measurement": "tolerance of transgenic plants compared to the wild-type soybean plants", "setting": "[2]", "result": "superior tolerance"},
      {"measurement": "number of plants with Damage 0 (No damage)", "setting": "[3]", "result": 0},
      {"measurement": "number of plants with Damage 1 (Light and transient damage)", "setting": "[3]", "result": 3},
      {"measurement": "number of plants with Damage 2 (Strong damage)", "setting": "[3]", "result": 2},
      {"measurement": "number of plants with Damage 3 (Very strong damage)", "setting": "[3]", "result": 4},
      {"measurement": "number of plants with Damage 0 (No damage)", "setting": "[4]; AvHPPD line 656", "result": 2},
      {"measurement": "number of plants with Damage 1 (Light and transient damage)", "setting": "[4]; AvHPPD line 656", "result": 1},
      {"measurement": "number of plants with Damage 2 (Strong damage)", "setting": "[4]; AvHPPD line 656", "result": 3},
      {"measurement": "number of plants with Damage 3 (Very strong damage)", "setting": "[4]; AvHPPD line 656", "result": 4},
      {"measurement": "number of plants with Damage 0 (No damage)", "setting": "[4]; AvHPPD line 659", "result": 3},
      {"measurement": "number of plants with Damage 1 (Light and transient damage)", "setting": "[4]; AvHPPD line 659", "result": 1},
      {"measurement": "number of plants with Damage 2 (Strong damage)", "setting": "[4]; AvHPPD line 659", "result": 0},
      {"measurement": "number of plants with Damage 3 (Very strong damage)", "setting": "[4]; AvHPPD line 659", "result": 6},
      {"measurement": "number of plants with Damage 0 (No damage)", "setting": "[4]; AvHPPD line 699", "result": 1},
      {"measurement": "number of plants with Damage 1 (Light and transient damage)", "setting": "[4]; AvHPPD line 699", "result": 1},
      {"measurement": "number of plants with Damage 2 (Strong damage)", "setting": "[4]; AvHPPD line 699", "result": 1},
      {"measurement": "number of plants with Damage 3 (Very strong damage)", "setting": "[4]; AvHPPD line 699", "result": 7},
      {"measurement": "number of plants with Damage 0 (No damage)", "setting": "[5]; FMP27 line 733", "result": 3},
      {"measurement": "number of plants with Damage 1 (Light and transient damage)", "setting": "[5]; FMP27 line 733", "result": 1},
      {"measurement": "number of plants with Damage 2 (Strong damage)", "setting": "[5]; FMP27 line 733", "result": 4},
      {"measurement": "number of plants with Damage 3 (Very strong damage)", "setting": "[5]; FMP27 line 733", "result": 2},
      {"measurement": "number of plants with Damage 0 (No damage)", "setting": "[5]; FMP27 line 734", "result": 4},
      {"measurement": "number of plants with Damage 1 (Light and transient damage)", "setting": "[5]; FMP27 line 734", "result": 2},
      {"measurement": "number of plants with Damage 2 (Strong damage)", "setting": "[5]; FMP27 line 734", "result": 0},
      {"measurement": "number of plants with Damage 3 (Very strong damage)", "setting": "[5]; FMP27 line 734", "result": 4},
      {"measurement": "number of plants with Damage 0 (No damage)", "setting": "[5]; FMP27 line 735", "result": 0},
      {"measurement": "number of plants with Damage 1 (Light and transient damage)", "setting": "[5]; FMP27 line 735", "result": 4},
      {"measurement": "number of plants with Damage 2 (Strong damage)", "setting": "[5]; FMP27 line 735", "result": 4},
      {"measurement": "number of plants with Damage 3 (Very strong damage)", "setting": "[5]; FMP27 line 735", "result": 2},
      {"measurement": "number of plants with Damage 0 (No damage)", "setting": "[6]; FMP37 line 749", "result": 2},
      {"measurement": "number of plants with Damage 1 (Light and transient damage)", "setting": "[6]; FMP37 line 749", "result": 3},
      {"measurement": "number of plants with Damage 2 (Strong damage)", "setting": "[6]; FMP37 line 749", "result": 2},
      {"measurement": "number of plants with Damage 3 (Very strong damage)", "setting": "[6]; FMP37 line 749", "result": 3},
      {"measurement": "number of plants with Damage 0 (No damage)", "setting": "[6]; FMP37 line 754", "result": 2},
      {"measurement": "number of plants with Damage 1 (Light and transient damage)", "setting": "[6]; FMP37 line 754", "result": 1},
      {"measurement": "number of plants with Damage 2 (Strong damage)", "setting": "[6]; FMP37 line 754", "result": 5},
      {"measurement": "number of plants with Damage 3 (Very strong damage)", "setting": "[6]; FMP37 line 754", "result": 2},
      {"measurement": "number of plants with Damage 0 (No damage)", "setting": "[6]; FMP37 line 795", "result": 1},
      {"measurement": "number of plants with Damage 1 (Light and transient damage)", "setting": "[6]; FMP37 line 795", "result": 0},
      {"measurement": "number of plants with Damage 2 (Strong damage)", "setting": "[6]; FMP37 line 795", "result": 6},
      {"measurement": "number of plants with Damage 3 (Very strong damage)", "setting": "[6]; FMP37 line 795", "result": 3},
      {"measurement": "tolerance of transgenic plants compared to the wild-type cotton plants", "setting": "[7]", "result": "superior tolerance"},
      {"measurement": "tolerance of the transgenic tobacco plants (symptoms due to application of the herbicide)", "setting": "[8]; T1 plants sprayed, evaluated one week after application", "result": "good tolerance"},
      {"measurement": "sensitivity of transgenic tobacco plants compared to wild type (wt) plants", "setting": "[8]; all tested independent lines, agronomically relevant dose", "result": "less sensitive"}
    ]}
  ]
}
